In patent US20250332131A1, “COMPOSITION FOR ACTIVATING NICOTINAMIDE PHOSPHORIBOSYLTRANSFERASE” (Yuki Gosei Kogyo Co., Ltd., priority 2024, published 2025):

Test system: miRNA contained in exosomes secreted from C2C12 cells
Conditions: ratio of 1.5 or more compared to the control and signal value exceeding 100; Table 1, FIG. 5
Experimental: In this example, miRNA in exosomes was analyzed by microarray.
The exosome solution purified in Example 2 was used for microarray analysis. The microarray experiment was outsourced to Kamakura Techno Science (Kanagawa, Japan). Based on the data obtained, samples with a ratio of 1.5 or more compared to the control and with either of the two samples with a signal value exceeding 100 were extracted as miRNAs with altered transcription levels.

`NCCC(=O)O` [β-alanine, 3-aminopropanoic acid] was tested, and the “miRNA increased in exosomes of C2C12 cells” value was “six RNAs were increased”.
